Experimental data taken from US9174951B2, “Glucose transporter inhibitors” (The Ohio State University Research Foundation, priority 2012, dated 2015).

Legend:
LNCaP cells = test: Western blot analysis of energy restriction-associated markers in LNCaP cells; format: cell-based, human
Method: FIG. 4. (A) Dose-dependent suppressive effects of compounds 1, 2, 4, 5, 28, and 30 on the viability of LNCaP cells by MTT assays in 10% FBS-containing RPMI 1640 medium after 72 h of drug treatment. Column, mean; bars, SD (N=6). (B) Dose-dependent effect of compound 30 on the viability of normal prostate epithelial cells (PrECs) and human mammary epithelial cells (HMECs) after 72 h of treatment. Column, mean; bars, SD (N=6). (C) Western blot analysis of the dose-dependent effects of compound 30 on markers associated with apoptosis (PARP cleavage), β-TrCP-mediated protein degradation (β-TrCP, cyclin D1, Sp1, and AR), AMPK activation (p-AMPK, p-mTOR, and pp706SK), ER stress (GRP78 and GADD153), and epigenetic activation of KLF6.
Plasmid Construction, Transient Transfection and Immunoblotting. The full length GLUT1, GLUT4, and GLUT9 ORF cDNA clones were purchased from Addgene (Cambridge, Mass.) and GLUT3 ORF cDNA was purchased from Origene Technologies (Rockville, Md.). GLUT1, GLUT3, and GLUT9 were subcloned into the HindIII/SalI sites and GLUT4 was subcloned into the EcoRI/SalI sites of pEGFP-N2 expression vector (Clontech, Palo Alto, Calif.). Transfections were performed by electroporation using Nucleofector kit R of the Amaxa Nucleofector system (Lonza, Walkersville, Md.) according to the manufacturer's protocol. Immunoblotting was performed using cells lysates harvested with SDS lysis buffer (1% SDS, 50 mM Tris-HCl pH 8.0, 10 mM EDTA) containing 1× protease inhibitor cocktail (Sigma) and phosphatase inhibitor and were electrophoresed in 8˜12% SDS polyacrylamide gels and then transferred onto nitrocellulose membranes. After blotting in 5% nonfat dry milk, the membranes were incubated with primary antibodies at 1:1,000 dilution in TBS-Tween 20 overnight at 4° C., and then secondary antibodies conjugated with horseradish peroxidase at 1:5,000 dilution in TBS-Tween 20 for 1 hour at room temperature. Protein bands were visualized on X-ray film using an enhanced chemiluminescence system.

GLUT4 = target: T1, GLUT4 (Homo sapiens, UniProt P14672); test: [3H]2-DG uptake into LNCaP cells overexpressing GLUT4; format: cell-based; details: for inhibition at 5 µM: LNCaP cells transfected with GLUT4, 30 min
T1 construct: The full length GLUT1, GLUT4, and GLUT9 ORF cDNA clones were purchased from Addgene; host or cells: LNCaP
T1 sequence (P14672 1-509): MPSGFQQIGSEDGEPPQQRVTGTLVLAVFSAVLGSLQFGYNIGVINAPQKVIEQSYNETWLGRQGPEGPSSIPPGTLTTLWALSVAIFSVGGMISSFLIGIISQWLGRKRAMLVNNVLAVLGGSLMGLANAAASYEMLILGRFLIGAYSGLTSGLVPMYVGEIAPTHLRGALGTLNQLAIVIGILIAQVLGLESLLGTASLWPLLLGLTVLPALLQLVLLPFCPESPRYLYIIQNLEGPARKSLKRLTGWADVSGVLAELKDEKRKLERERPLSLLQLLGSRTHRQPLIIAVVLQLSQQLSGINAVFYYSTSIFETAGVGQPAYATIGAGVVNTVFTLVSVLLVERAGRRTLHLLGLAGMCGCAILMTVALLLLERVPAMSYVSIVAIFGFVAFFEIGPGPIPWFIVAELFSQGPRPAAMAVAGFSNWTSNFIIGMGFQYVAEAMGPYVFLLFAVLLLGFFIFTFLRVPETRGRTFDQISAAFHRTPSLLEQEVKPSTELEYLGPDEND
Excerpt: (§1) As information regarding the expression pattern of individual GLUT members in LNCaP cells was lacking, quantitative real time polymerase chain reaction (qRT-PCR) was used to assess the mRNA levels of the hypoxia-responsive GLUT1 and GLUT3, and three other representative GLUT members, including the class I GLUT2 and GLUT4 and the class II GLUT9. Among these five members, LNCaP cells expressed GLUT1 and, to a much lesser extent, GLUT9, while the mRNA levels of GLUTs2-4 were negligible (FIG. 3B). To examine the isoform specificity of these inhibitors, LNCaP cells were ectopically transfected with plasmids encoding GLUT1, GLUT3, GLUT4, or GLUT9 vis-à-vis the pCMV control vector so that the increased glucose uptake in GLUT-transfected cells relative to pCMV control cells was indicative of the activity of the ectopically expressed GLUT protein.
(§2) Glucose Uptake Assay. LNCaP cells were seeded in six-well plates (3×10^5 cells/well) for 24 h. Cells were washed twice with Krebs-Ringer phosphate buffer (126 mM NaCl, 2.5 mM KCl, 25 mM NaHCO3, 1.2 mM NaH2PO4, 1.2 mM MgCl2, 2.5 mM CaCl2, pH 7.4) and were then treated with individual agents in Krebs-Ringer phosphate buffer. After 1.5 h, glucose uptake was initiated by adding 1 mL Krebs-Ringer buffer containing […] [^3H]2-DG (PerkinElmer Life Science) and […] non-radioactive 2-DG and was terminated by washing with cold PBS. The cells were lysed in […] lysis buffer (10 mM Tris-HCl pH 8.0, 0.1% SDS) and aliquots were taken for measurement of radioactivity using a scintillation counter (Beckman LS6500).
(§3) Plasmid Construction, Transient Transfection and Immunoblotting. The full length GLUT1, GLUT4, and GLUT9 ORF cDNA clones were purchased from Addgene (Cambridge, Mass.) and GLUT3 ORF cDNA was purchased from Origene Technologies (Rockville, Md.). GLUT1, GLUT3, and GLUT9 were subcloned into the HindIII/SalI sites and GLUT4 was subcloned into the EcoRI/SalI sites of pEGFP-N2 expression vector (Clontech, Palo Alto, Calif.). […]

GLUT9 = target: T2, GLUT9 (Homo sapiens, UniProt Q9NRM0); test: [3H]2-DG uptake into LNCaP cells overexpressing GLUT9; format: cell-based; details: for inhibition at 5 µM: LNCaP cells transfected with GLUT9, 30 min
T2 construct: The full length GLUT1, GLUT4, and GLUT9 ORF cDNA clones were purchased from Addgene; EGFP (from the pEGFP-N2 vector); host or cells: LNCaP
T2 sequence (Q9NRM0 1-540): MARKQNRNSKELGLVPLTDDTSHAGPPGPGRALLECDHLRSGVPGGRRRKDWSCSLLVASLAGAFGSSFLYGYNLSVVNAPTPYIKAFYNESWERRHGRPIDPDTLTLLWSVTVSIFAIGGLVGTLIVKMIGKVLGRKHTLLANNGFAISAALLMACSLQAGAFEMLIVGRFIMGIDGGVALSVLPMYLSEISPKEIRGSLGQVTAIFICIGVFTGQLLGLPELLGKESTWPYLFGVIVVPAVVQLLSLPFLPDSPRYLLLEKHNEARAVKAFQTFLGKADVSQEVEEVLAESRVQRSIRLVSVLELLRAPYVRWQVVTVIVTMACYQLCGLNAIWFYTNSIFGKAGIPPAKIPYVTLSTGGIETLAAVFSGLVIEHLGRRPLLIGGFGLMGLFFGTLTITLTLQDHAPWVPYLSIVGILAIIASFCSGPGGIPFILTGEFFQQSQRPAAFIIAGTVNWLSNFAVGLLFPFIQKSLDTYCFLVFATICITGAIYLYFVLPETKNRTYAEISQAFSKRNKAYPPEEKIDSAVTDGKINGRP
Excerpt: as §1, §2, §3

Row | SMILES | AMPK phosphorylation (LNCaP cells) | PARP cleavage (apoptosis) (LNCaP cells) | expression of ER stress markers GRP78 and GADD153 (LNCaP cells) | expression of KLF6 (LNCaP cells) | expression of cyclin D1, Sp1 and AR (LNCaP cells) | levels of p-mTOR and p-p70S6K (LNCaP cells) | β-TrCP expression (LNCaP cells) | IC50 (GLUT4; LNCaP cells overexpressing GLUT4, read-out: IC50 for GLUT4-mediated [3H]2-DG uptake) [µM] | inhibition at 5 µM (GLUT4) [%] | IC50 (GLUT9; LNCaP cells overexpressing GLUT9, read-out: IC50 for GLUT9-mediated [3H]2-DG uptake) [µM] | inhibition at 5 µM (GLUT9) [%]
1 | CC(CN1C(=O)S/C(=C\c2ccc(O)c(C(F)(F)F)c2)C1=O)(CC(F)(F)F)CC(F)(F)F [Compound 30, 5-(4-Hydroxy-3-trifluoromethyl-benzylidene)-3-[4,4,4-trifluoro-2-methyl-2-(2,2,2-trifluoro-ethyl)-butyl]-thiazolidine-2,4-dione] | increases | dose-dependent increase | increased expression | increased the expression | downregulation | concomitant decreases | dose dependently increased | ≥ 5 | 42 | ≥ 5 | 34
2 | CCC(CC)CN1C(=O)S/C(=C\c2ccc(O)c(C(F)(F)F)c2)C1=O [Compound 5] | – | – | – | – | – | – | – | – | 32 | – | 26
